Laboratory results taken from patent US20250114460A1, “NOVEL PLK1 DEGRADATION INDUCING COMPOUND” (UPPTHERA, INC., priority 2021, published 2025).

Key:
Format in all cases: cell-based
PLK1 = biological target: T1, PLK1 (Homo sapiens, UniProt P53350); assay: Luciferase assay for PLK1 in HeLa LgBit (Plk1-HiBit KI) cell line; conditions: 300 nM compound, luminescence after 9 hours
T1 construct: endogenous in cells; host or cells: HeLa LgBit (Plk1-HiBit KI): HeLa stably expressing LgBit, with a CRISPR/Cas9 knock-in of HiBit at the endogenous PLK1 locus
Method in brief: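 Luminescence, followed in real time after adding compound at 300 nM and Endurazine substrate, is reported relative to DMSO-treated wells. Cells are a HeLa LgBit line with a Plk1-HiBit knock-in, synchronized by 2 mM thymidine for 24 h, released, and cultured 18 h before treatment.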

NCI-H526 cell line = assay: Cell viability assay for H526 cell (EZ-Cytox); conditions: Homo sapiens, NCI-H526, 120 h; H526 cells, 5 days, 3000 nM to 0.46 nM
Method in brief: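 Read-out was EZ-Cytox colorimetric absorbance at 450 nm, taken after brief plate shaking, with IC50 derived. Before reading, H526 cells had been cultured with test compound for 5 days.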

MRC-5 cell line = assay: Cell viability assay for MRC-5 cell line (EZ-Cytox); conditions: Homo sapiens, MRC5, 120 h; MRC-5 normal cell line, 5 days, 10000 nM to 1.52 nM; N.D. = no cytotoxicity until 10 μM; read-out: Activity: IC50 value of Exemplary Compound to MRC-5 cell line
Description: 4. Cell Viability Assay for MRC-5 Cell Line
(1) Culture of MRC-5 Cell Line
Passage of cultured cells was maintained within P15.
(2) Treatment of Compounds of the Present Invention
Then, it was cultured in 37° C.
(3) Cytotoxicity Experiment
CO2 incubator for 4 hours.

T1 sequence (P53350 whole entry): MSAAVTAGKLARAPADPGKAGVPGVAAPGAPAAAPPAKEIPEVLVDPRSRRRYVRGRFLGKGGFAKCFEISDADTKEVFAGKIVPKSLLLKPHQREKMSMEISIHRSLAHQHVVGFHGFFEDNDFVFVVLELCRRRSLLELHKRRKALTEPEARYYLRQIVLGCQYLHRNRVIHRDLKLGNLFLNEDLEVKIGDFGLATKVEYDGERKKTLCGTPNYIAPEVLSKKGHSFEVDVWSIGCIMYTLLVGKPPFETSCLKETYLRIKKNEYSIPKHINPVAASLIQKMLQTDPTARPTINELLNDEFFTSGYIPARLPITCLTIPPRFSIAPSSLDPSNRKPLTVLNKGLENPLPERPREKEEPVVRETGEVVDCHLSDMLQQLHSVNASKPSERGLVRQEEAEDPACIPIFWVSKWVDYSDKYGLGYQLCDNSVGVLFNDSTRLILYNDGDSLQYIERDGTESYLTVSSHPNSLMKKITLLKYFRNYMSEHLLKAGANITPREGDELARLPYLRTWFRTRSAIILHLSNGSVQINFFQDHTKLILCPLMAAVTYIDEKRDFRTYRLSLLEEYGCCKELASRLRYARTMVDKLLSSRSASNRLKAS

Row | Compound | Activity: ratio of the luminescense value of each Exemplary Compound treatment group to DMSO treatment group (PLK1) | IC50 (NCI-H526 cell line) [µM] | IC50 (MRC-5 cell line) [µM]
1 | COc1cc(C(=O)NN2CCC(N3CCN(c4cccc5c4C(=O)N(C4CCC(=O)NC4=O)C5=O)CC3)C2)ccc1Nc1ncc2c(n1)N(C(C)C)CC(F)(F)C(=O)N2C (stereo not drawn) [Compound 155, 4-((7,7-difluoro-9-isopropyl-5-methyl-6-oxo-6,7,8,9-tetrahydro-5H-pyrimido[4,5-b][1,4]diazepin-2-yl)amino)-N-(3-(4-(2-(2,6-dioxopiperidin-3-yl)-1,3-dioxoisoindolin-4-yl)piperazin-1-yl)pyrrolidin-1-yl)-3-methoxybenzamide] | + (+<0.7) | < 0.1 | > 10
2 | COc1cc(C(=O)NC2CCN(C(=O)CSc3cccc4c3C(=O)N(C3CCC(=O)NC3=O)C4=O)CC2)c(F)cc1Nc1ncc2c(n1)N(C1CCCC1)CC(F)(F)C(=O)N2C (stereo not drawn) [Compound 41, 4-((9-cyclopentyl-7,7-difluoro-5-methyl-6-oxo-6,7,8,9-tetrahydro-5H-pyrimido[4,5-b][1,4]diazepin-2-yl)amino)-N-(1-(2-((2-(2,6-dioxopiperidin-3-yl)-1,3-dioxoisoindolin-4-yl)thio)acetyl)piperidin-4-yl)-2-fluoro-5-methoxybenzamide] | ++ (++<0.6) | < 0.2 | > 10
3 | Cc1cc(C(=O)NC2CCN(C(=O)CCN3CCN(c4cccc5c4C(=O)N(C4CCC(=O)NC4=O)C5=O)CC3)CC2)ccc1Nc1ncc2c(n1)N(C1CCCC1)CC(F)(F)C(=O)N2C (stereo not drawn) [Compound 71, 4-((9-cyclopentyl-7,7-difluoro-5-methyl-6-oxo-6,7,8,9-tetrahydro-5H-pyrimido[4,5-b][1,4]diazepin-2-yl)amino)-N-(1-(3-(4-(2-(2,6-dioxopiperidin-3-yl)-1,3-dioxoisoindolin-4-yl)piperazin-1-yl)propanoyl)piperidin-4-yl)-3-methylbenzamide] | ++ (++<0.6) | < 0.05 | > 10
4 | COc1cc(C(=O)NC2CCN(C(=O)CC3CCN(c4ccc5c(c4)C(=O)N(C4CCC(=O)NC4=O)C5=O)C3)CC2)c(F)cc1Nc1ncc2c(n1)N(C1CCCC1)CC(F)(F)C(=O)N2C (stereo not drawn) [Compound 45, 4-((9-cyclopentyl-7,7-difluoro-5-methyl-6-oxo-6,7,8,9-tetrahydro-5H-pyrimido[4,5-b][1,4]diazepin-2-yl)amino)-N-(1-(2-(1-(2-(2,6-dioxopiperidin-3-yl)-1,3-dioxoisoindolin-5-yl)pyrrolidin-3-yl)acetyl)piperidin-4-yl)-2-fluoro-5-methoxybenzamide] | ++ (++<0.6) | < 0.1 | > 10
5 | COc1cc(C(=O)NC2CCN(C(=O)CCN3CCN(c4cccc5c4C(=O)N(C4CCC(=O)NC4=O)C5=O)CC3)CC2)ccc1Nc1ncc2c(n1)N(C(C)C)CC(F)(F)C(=O)N2C (stereo not drawn) [Compound 66, 4 4-((7,7-difluoro-9-isopropyl-5-methyl-6-oxo-6,7,8,9-tetrahydro-5H-pyrimido[4,5-b][1,4]diazepin-2-yl)amino)-N-(1-(3-(4-(2-(2,6-dioxopiperidin-3-yl)-1,3-dioxoisoindolin-4-yl)piperazin-1-yl)propanoyl)piperidin-4-yl)-3-methoxybenzamide] | +++ (+++: <0.3) | < 0.05 | > 10
6 | COc1cc(C(=O)NC2CN(CC3CCN(c4ccc5c(c4)C(=O)N(C4CCC(=O)NC4=O)C5=O)CC3)C2)ccc1Nc1ncc2c(n1)N(C1CCCC1)CC(F)(F)C(=O)N2C (stereo not drawn) [Compound 139, 4-((9-cyclopentyl-7,7-difluoro-5-methyl-6-oxo-6,7,8,9-tetrahydro-5H-pyrimido[4,5-b][1,4]diazepin-2-yl)amino)-N-(1-((1-(2-(2,6-dioxopiperidin-3-yl)-1,3-dioxoisoindolin-5-yl)piperidin-4-yl)methyl)azetidin-3-yl)-3-methoxybenzamide] | ++ (++<0.6) | < 0.05 | > 10
7 | COc1cc(C(=O)NN2CC(N3CCN(c4ccc5c(c4)C(=O)N(C4CCC(=O)NC4=O)C5=O)CC3)C2)ccc1Nc1ncc2c(n1)N(C(C)C)CC(F)(F)C(=O)N2C (stereo not drawn) [Compound 159, 4-((7,7-difluoro-9-isopropyl-5-methyl-6-oxo-6,7,8,9-tetrahydro-5H-pyrimido[4,5-b][1,4]diazepin-2-yl)amino)-N-(3-(4-(2-(2,6-dioxopiperidin-3-yl)-1,3-dioxoisoindolin-5-yl)piperazin-1-yl)azetidin-1-yl)-3-methoxybenzamide] | ++ (++<0.6) | < 0.03 | 4.91
8 | COc1cc(C(=O)NC2CCN(C(=O)CCN3CCN(c4ccc(F)c5c4C(=O)N(C4CCC(=O)NC4=O)C5=O)CC3)CC2)ccc1Nc1ncc2c(n1)N(C1CCCC1)CC(F)(F)C(=O)N2C (stereo not drawn) [Compound 142, 4-((9-cyclopentyl-7,7-difluoro-5-methyl-6-oxo-6,7,8,9-tetrahydro-5H-pyrimido[4,5-b][1,4]diazepin-2-yl)amino)-N-(1-(3-(4-(2-(2,6-dioxopiperidin-3-yl)-7-fluoro-1,3-dioxoisoindolin-4-yl)piperazin-1-yl)propanoyl)piperidin-4-yl)-3-methoxybenzamide] | ++ (++<0.6) | < 0.1 | > 10
9 | C=C[C@@]1(F)CN(C2CCCC2)c2nc(Nc3ccc(C(=O)NC4CCN(C(=O)CCN5CCN(c6cccc7c6C(=O)N(C6CCC(=O)NC6=O)C7=O)CC5)CC4)cc3OC)ncc2N(C)C1=O (single isomer, unassigned) [Compound 108] | ++ (++<0.6) | < 0.1 | > 10

The next lines start with results.

Row | Activity: ratio of the luminescense value of each Exemplary Compound treatment group to DMSO treatment group (PLK1) | Compound | IC50 (NCI-H526 cell line) [µM] | IC50 (MRC-5 cell line) [µM]
10 | ++ (++<0.6) | COc1cc(C(=O)NC2CCN(C(=O)CCCNc3cccc4c3C(=O)N(C3CCC(=O)NC3=O)C4=O)CC2)ccc1Nc1ncc2c(n1)N(C1CCCC1)CC(F)(F)C(=O)N2C (stereo not drawn) [Compound 25, 4-((9-cyclopentyl-7,7-difluoro-5-methyl-6-oxo-6,7,8,9-tetrahydro-5H-pyrimido[4,5-b][1,4]diazepin-2-yl)amino)-N-(1-(4-((2-(2,6-dioxopiperidin-3-yl)-1,3-dioxoisoindolin-4-yl)amino)butanoyl)piperidin-4-yl)-3-methoxybenzamide] | < 0.05 | > 10
11 | ++ (++<0.6) | COc1cc(C(=O)N[C@H]2CC[C@H](N3CCN(CCOCCNc4cccc5c4C(=O)N(C4CCC(=O)NC4=O)C5=O)CC3)CC2)ccc1Nc1ncc2c(n1)N(C1CCCC1)CC(F)(F)C(=O)N2C (stereo partly drawn) [Compound 194, 4-((9-cyclopentyl-7,7-difluoro-5-methyl-6-oxo-6,7,8,9-tetrahydro-5H-pyrimido[4,5-b][1,4]diazepin-2-yl)amino)-N-((1r,4r)-4-(4-(2-(2-((2-(2,6-dioxopiperidin-3-yl)-1,3-dioxoisoindolin-4-yl)amino)ethoxy)ethyl)piperazin-1-yl)cyclohexyl)-3-methoxybenzamide] | < 0.05 | > 10
12 | ++ (++<0.6) | COc1cc(C(=O)NC2CN(CC3CCN(c4cccc5c4C(=O)N(C4CCC(=O)NC4=O)C5=O)CC3)C2)ccc1Nc1ncc2c(n1)N(C1CCCC1)CC(F)(F)C(=O)N2C (stereo not drawn) [Compound 138, 4-((9-cyclopentyl-7,7-difluoro-5-methyl-6-oxo-6,7,8,9-tetrahydro-5H-pyrimido[4,5-b][1,4]diazepin-2-yl)amino)-N-(1-((1-(2-(2,6-dioxopiperidin-3-yl)-1,3-dioxoisoindolin-4-yl)piperidin-4-yl)methyl)azetidin-3-yl)-3-methoxybenzamide] | < 0.05 | > 10
13 | +++ (+++: <0.3) | COc1cc(C(=O)NC2CCN(C(=O)CCCOc3cccc4c3C(=O)N(C3CCC(=O)NC3=O)C4=O)CC2)ccc1Nc1ncc2c(n1)N(C1CCCC1)CC(F)(F)C(=O)N2C (stereo not drawn) [Compound 31, 4-((9-cyclopentyl-7,7-difluoro-5-methyl-6-oxo-6,7,8,9-tetrahydro-5H-pyrimido[4,5-b][1,4]diazepin-2-yl)amino)-N-(1-(4-((2-(2,6-dioxopiperidin-3-yl)-1,3-dioxoisoindolin-4-yl)oxy)butanoyl)piperidin-4-yl)-3-methoxybenzamide] | < 0.1 | > 10
14 | +++ (+++: <0.3) | COc1cc(C(=O)NC2CCN(C(=O)CCC3(O)CCN(c4cccc5c4C(=O)N(C4CCC(=O)NC4=O)C5=O)CC3)CC2)ccc1Nc1ncc2c(n1)N(C1CCCC1)CC(F)(F)C(=O)N2C (stereo not drawn) [Compound 63, 4-((9-cyclopentyl-7,7-difluoro-5-methyl-6-oxo-6,7,8,9-tetrahydro-5H-pyrimido[4,5-b][1,4]diazepin-2-yl)amino)-N-(1-(3-(1-(2-(2,6-dioxopiperidin-3-yl)-1,3-dioxoisoindolin-4-yl)-4-hydroxypiperidin-4-yl)propanoyl)piperidin-4-yl)-3-methoxybenzamide] | < 0.05 | > 10
